The structures appear in SMILES notation.

Data set [1] has as its system tumor associated inflammatory cytokines (IL-6, IFNγ). Kind of data set: cytokine array of xenograft tumor tissue homogenates. It is filed as in vivo, mouse. The text has this: Reduced IL-6 expression in a dose-dependent manner is shown magnified (FIG. 4A).
Some studies of RTX have reported a potential to induce neurologic inflammatory responses. […] Tumor tissue homogenate samples from mouse xenograft tumor models described in Example B were taken at necroptic endpoint and analyzed for tumor associated inflammatory cytokine levels using a cytokine array (FIG. 4A).

Data set [2] relates to human prostate cancer cell line LNCaP. Briefly: proliferation assay, prostate cancer cell line LNCaP. The data set is classed as cell-based. The settings on record: LNCaP cells cultured with varying amounts of RTX, FIG. 2C. The text has this:
(§1) Proliferation measurements were normalized to an untreated control.

In data set [3] the test system is human prostate cancer cell line DU145. Kind of data set: proliferation assay, prostate cancer cell line DU145. As to conditions: DU145 cells cultured with varying amounts of RTX, FIG. 2C. It is filed as cell-based.
Source text: as §1

In data set [4] the test system is human DU145 prostate carcinoma cells engrafted s.c. Briefly: mouse xenograft tumor model, tumor volume over time. It is filed as in vivo. The settings on record: 0.1, 0.5 and 1 μg/dose, local (peritumoral) every other day from day 28 after engraftment, FIG. 3A. The protocol: (§2) FIGS. 3A, 3B and 3C show RTX inhibits prostate carcinoma progression in a cytostatic manner. […] RTX was administered locally (peritumorally) every other day at the indicated dose starting at 28 days after engraftment. The cytostatic activity appeared to be dose-independent in the tested range of 0.1-1 μg/dose. […] Scale, 100 μm. CD31+ blood vessel length and cleaved caspase 3 levels (expressed as median fluorescence intensity, MFI) are quantified in FIG. 3C.

The subject of data set [5] is human DU145 prostate carcinoma xenograft tumor tissue. Briefly: H&E staining and immunofluorescence of dissected xenograft tumor tissues. It is filed as in vivo, mouse. The settings on record: immunofluorescence of tumor tissue, FIG. 3C. The protocol: as §2
Dissected tumor tissues were assessed by H&E staining and by immunofluorescence for CD31 (tumor vessel marker), DRAQ7 (nuclear marker), and cleaved caspase 3 (apoptotic cell maker). […] (FIG. 3B, upper row). […] (FIG. 3B, middle row).

In the case of `C=C(C)[C@]12C[C@@H](C)[C@@]34O[C@](Cc5ccccc5)(O[C@@H]1[C@@H]3C=C(COC(=O)Cc1ccc(O)c(OC)c1)C[C@]1(O)C(=O)C(C)=C[C@@H]41)O2` [RTX, Resiniferatoxin], the “Cytokine Release Syndrome (inflammatory cytokine expression)” value in data set [1] (tumor homogenates taken at necroptic endpoint, FIG. 4A) is “no indication of Cytokine Release Syndrome (CRS)”. For the same compound, in data set [1] (tumor homogenates, cytokine array), the IFNγ expression result is listed as “did not induce elevated expression of IFNγ”. The IL-6 expression result in data set [1] (tumor homogenates, higher RTX doses, FIG. 4A-C) is recorded as “reduced expression”. Also, the “proliferation (normalized to untreated control)” value in data set [2] and in data set [3] was “dose-dependent decreases in proliferation” in each case. In addition, the “cytostatic efficacy (tumor volume)” value in data set [4] was “potent cytostatic efficacy in a dose-independent manner”. The “tumor cell apoptosis (cleaved caspase 3 staining)” value in data set [5] (FIG. 3B lower row) is “tumor cell apoptosis increased”. For the same compound, in data set [5] (FIG. 3B middle row), the “CD31+ tumor vasculature” value is “decreased contiguous CD31+ stained structures”.

The record behind these values is patent US20250000841A1, “Administration of Resiniferatoxin For Treatment of Prostate Cancer” (Sorrento Therapeutics, Inc., priority 2021, published 2025).
